US7449463B2, “Morpholinyl containing benzimidazoles as inhibitors of respiratory syncytial virus replication” (Tibotec Pharmaceuticals Ltd., priority 2003, dated 2008)

These compounds were tested on Respiratory Syncytial Virus (assay: microbe, parasite or virus in culture). Conditions: RSV-infected HeLa cells, MTT readout seven days after infection; −log of EC50 in molar units.
Type: cell-based
Text: In vitro Screening for Activity against Respiratory Syncytial Virus.
The percent protection against cytopathology caused by viruses (antiviral activity or EC50) achieved by tested compounds and their cytotoxicity (CC50) are both calculated from dose-response curves. The selectivity of the antiviral effect is represented by the selectivity index (SI), calculated by dividing the CC50 (cytotoxic dose for 50% of the cells) by the EC50 (antiviral activity for 50% of the cells).
Automated tetrazolium-based colorimetric assays were used for determination of EC50 and CC50 of test compounds. Flat-bottom, 96-well plastic microtiter trays were filled with 180 μl of Eagle's Basal Medium, supplemented with 5% FCS (0% for FLU) and 20 mM Hepes buffer. Subsequently, stock solutions (7.8× final test concentration) of compounds were added in 45 μl volumes to a series of triplicate wells so as to allow simultaneous evaluation of their effects on virus- and mock-infected cells. Five five-fold dilutions were made directly in the microtiter trays using a robot system. Untreated virus controls, and HeLa cell controls were included in each test. Approximately 100 TCID50 of Respiratory Syncytial Virus was added to two of the three rows in a volume of 50 μl. The same volume of medium was added to the third row to measure the cytotoxicity of the compounds at the same concentrations as those used to measure the antiviral activity. After two hours of incubation, a suspension (4×10^5 cells/ml) of HeLa cells was added to all wells in a volume of 50 μl. The cultures were incubated at 37° C. in a 5% CO2 atmosphere. Seven days after infection the cytotoxicity and the antiviral activity was examined spectrophotometrically. To each well of the microtiter tray, 25 μl of a solution of MTT (3-(4,5-dimethylthiazol-2-yl)-2,5-diphenyltetrazolium bromide) was added. The trays were further incubated at 37° C. for 2 hours, after which the medium was removed from each cup. Solubilization of the formazan crystals was achieved by adding 100 μl 2-propanol. Complete dissolution of the formazan crystals were obtained after the trays have been placed on a plate shaker for 10 min. Finally, the absorbances were read in an eight-channel computer-controlled photometer (Multiskan MCC, Flow Laboratories) at two wavelengths (540 and 690 nm). The absorbance measured at 690 nm was automatically subtracted from the absorbance at 540 nm, so as to eliminate the effects of non-specific absorption.

Compared with “2-[5,7-dimethyl-2-(2-morpholin-4-ylethyl-piperidin-4-ylamino)-benzoindazol-1-ylmethyl]-6-methyl-pyridin-3-ol [Compound 162]”, `Cc1ccc(O)c(Cn2c(NCCCN3CCOCC3)nc3ccc(CNc4cc(C#N)ccc4CCO)cc32)n1` [Compound 1] is higher in Activity: 7.9 for the first, 10 for the second.

Going from `Cc1ccc(O)c(Cn2c(NCCCN3CCOCC3)nc3ccc(CNc4cc(Br)ccc4CCCO)cc32)n1` [Compound 2] to `Cc1ccc(O)c(Cn2c(NCCCN3CCOCC3)nc3ccc(CNc4cc(Cl)ccc4CCCO)cc32)n1` [Compound 4], the Activity falls from 10 to 9.9.

First: Cc1ccc(OCCO)c(NCc2ccc3nc(NCCCN4CCOCC4)n(Cc4nc(C)ccc4O)c3c2)c1 [Compound 5]
Second: Cc1ccc(CCO)c(NCc2ccc3nc(NCCCN4CCOCC4)n(Cc4nc(C)ccc4O)c3c2)c1 [Compound 7]
The Activity of the first is higher: 9.8 for the first, 9.6 for the second.

`COc1ccc(CCO)c(NCc2ccc3nc(NCCCN4CCOCC4)n(Cc4nc(C)ccc4O)c3c2)c1` [Compound 9] and `C#Cc1ccc(CCO)c(NCc2ccc3nc(NCCCN4CCOCC4)n(Cc4nc(C)ccc4O)c3c2)c1` [Compound 10] are the same in Activity: 9.6 for the first, 9.6 for the second.

Compared with `Cc1ccc(O)c(Cn2c(NCCCN3CCOCC3)nc3ccc(CNc4cc(Br)ccc4CCO)cc32)n1` [Compound 11], `Cc1ccc(O)c(Cn2c(NCCCN3CCOCC3)nc3ccc(CNc4cc(C(F)(F)F)ccc4CCCO)cc32)n1` [Compound 13] is lower in Activity: 9.6 for the first, 9.5 for the second.

Compared with `COc1ccc(CCCO)c(NCc2ccc3nc(NCCCN4CCOCC4)n(Cc4nc(C)ccc4O)c3c2)c1` [Compound 14], `Cc1ccc(CCC(C)O)c(NCc2ccc3nc(NCCCN4CCOCC4)n(Cc4nc(C)ccc4O)c3c2)c1` (stereo not drawn) [Compound 15] is lower in Activity: 9.4 for the first, 9.3 for the second.

`Cc1ccc(CCC(N)=O)c(NCc2ccc3nc(NCCCN4CCOCC4)n(Cc4nc(C)ccc4O)c3c2)c1` [Compound 16] and `Cc1ccc(O)c(Cn2c(NCCCN3CCOCC3)nc3ccc(CNc4cc(C(C)C)ccc4CCO)cc32)n1` [Compound 17] are the same in Activity: 9.3 for the first, 9.3 for the second.

Compared with `Cc1ccc(O)c(Cn2c(NCCCN3CCOCC3)nc3ccc(CNc4cc(F)ccc4CCO)cc32)n1` [Compound 18], `Cc1ccc(C=CCO)c(NCc2ccc3nc(NCCCN4CCOCC4)n(Cc4nc(C)ccc4O)c3c2)c1` [Compound 19] is lower in Activity: 9.6 for the first, 9.3 for the second.

Compared with `Cc1ccc(CCCCO)c(NCc2ccc3nc(NCCCN4CCOCC4)n(Cc4nc(C)ccc4O)c3c2)c1` [Compound 20], `Cc1ccc(O)c(Cn2c(NCCCN3CCOCC3)nc3ccc(CNc4ccccc4CCO)cc32)n1` [Compound 22] is lower in Activity: 9.2 for the first, 9.1 for the second.

First: Cc1ccc(O)c(Cn2c(NCCCN3CCOCC3)nc3ccc(CNc4cccc(C)c4CCO)cc32)n1 [Compound 25]
Second: Cc1ccc(O)c(Cn2c(NCCCN3CCOCC3)nc3ccc(CNc4cccc(Br)c4)cc32)n1 [Compound 26]
The Activity of the first is higher: 8.9 for the first, 8.7 for the second.

Compared with `Cc1ccc(O)c(Cn2c(NCCCN3CCOCC3)nc3ccc(CNc4ccccc4C#N)cc32)n1` [Compound 27], `Cc1cccc(NCc2ccc3nc(NCCCN4CCOCC4)n(Cc4nc(C)ccc4O)c3c2)c1` [Compound 28] is lower in Activity: 8.7 for the first, 8.6 for the second.

`Cc1ccc(O)c(Cn2c(NCCCN3CCOCC3)nc3ccc(CNc4ccccc4CO)cc32)n1` [Compound 29] and `C#Cc1cccc(NCc2ccc3nc(NCCCN4CCOCC4)n(Cc4nc(C)ccc4O)c3c2)c1` [Compound 30] are the same in Activity: 8.6 for the first, 8.6 for the second.

`Cc1ccc(O)c(Cn2c(NCCCN3CCOCC3)nc3ccc(CNc4cccc(Cl)c4)cc32)n1` [Compound 31] and `Cc1ccc(O)c(Cn2c(NCCCN3CCOCC3)nc3ccc(CNc4ccccc4CCC(N)=O)cc32)n1` [Compound 33] are the same in Activity: 8.6 for the first, 8.6 for the second.

First: Cc1ccc(C#CCO)c(NCc2ccc3nc(NCCCN4CCOCC4)n(Cc4nc(C)ccc4O)c3c2)c1 [Compound 34, 2-[6-{[2-(3-Hydroxy-prop-1-ynyl)-5-methyl-phenylamino]-methyl}-2-(3-morpholin-4-yl-propylamino)-benzoimidazol-1-ylmethyl]-6-methyl-pyridin-3-ol]
Second: Cc1ccc(O)c(Cn2c(NCCCN3CCOCC3)nc3ccc(CNc4cccc(F)c4)cc32)n1 [Compound 35]
The Activity of the first is higher: 8.6 for the first, 8.5 for the second.

`Cc1ccc(O)c(Cn2c(NCCCN3CCOCC3)nc3ccc(CNc4cccc(OC(F)(F)F)c4)cc32)n1` [Compound 36] and `Cc1ccc(O)c(Cn2c(NCCCN3CCOCC3)nc3ccc(CNc4ccc(S(N)(=O)=O)cc4)cc32)n1` [Compound 37] are the same in Activity: 8.5 for the first, 8.5 for the second.

`Cc1ccc(O)c(Cn2c(NCCCN3CCOCC3)nc3ccc(CNc4ccc(C(N)=O)cc4)cc32)n1` [Compound 38] and `Cc1ccc(NCCO)c(NCc2ccc3nc(NCCCN4CCOCC4)n(Cc4nc(C)ccc4O)c3c2)c1` [Compound 39] are the same in Activity: 8.5 for the first, 8.5 for the second.

First: Cc1ccc(C)c(NCc2ccc3nc(NCCCN4CCOCC4)n(Cc4nc(C)ccc4O)c3c2)c1 [Compound 40]
Second: CCc1ccccc1NCc1ccc2nc(NCCCN3CCOCC3)n(Cc3nc(C)ccc3O)c2c1 [Compound 41]
The Activity of the first is higher: 8.4 for the first, 8.3 for the second.

Compared with `Cc1ccc(O)c(Cn2c(NCCCN3CCOCC3)nc3ccc(CNc4ccccc4CCN4CCOCC4)cc32)n1` [Compound 42], `Cc1ccc(O)c(Cn2c(NCCCN3CCOCC3)nc3ccc(CNc4cccc(C)c4CO)cc32)n1` [Compound 43] is lower in Activity: 8.3 for the first, 8.2 for the second.

Going from `Cc1ccc(O)c(Cn2c(NCCCN3CCOCC3)nc3ccc(CNc4cc(C(N)=O)ccc4CCO)cc32)n1` [Compound 44] to `Cc1ccc(O)c(Cn2c(NCCCN3CCOCC3)nc3ccc(CNc4ccccc4C(N)=O)cc32)n1` [Compound 45], the Activity falls from 8.1 to 7.9.

First: Cc1ccc(O)c(Cn2c(NCCCN3CCOCC3)nc3ccc(CNc4cccc(CCO)c4)cc32)n1 [Compound 47]
Second: Cc1cc(C)cc(NCc2ccc3c(c2)nc(NCCCN2CCOCC2)n3Cc2nc(C)ccc2O)c1 [Compound 51]
The Activity of the first is higher: 7.9 for the first, 7.2 for the second.

Compared with `Cc1ccc(O)c(Cn2c(NCCCN3CCOCC3)nc3ccc(CO)cc32)n1` [Compound 52], `Cc1ccc(O)c(Cn2c(NCCCN3CCOCC3)nc3cc(CO)ccc32)n1` [Compound 53] is lower in Activity: 7.2 for the first, 5.6 for the second.

First: Cc1cc(C)cc(N(CCCCO)Cc2ccc3nc(NCCCN4CCOCC4)n(Cc4nc(C)ccc4O)c3c2)c1 [Compound 61]
Second: Cc1cc(C)cc(N(CCCO)Cc2ccc3nc(NCCCN4CCOCC4)n(Cc4nc(C)ccc4O)c3c2)c1 [Compound 63]
The Activity of the first is higher: 9.5 for the first, 9.3 for the second.

Compared with `Cc1cc(C)cc(N(CCCCCO)Cc2ccc3nc(NCCCN4CCOCC4)n(Cc4nc(C)ccc4O)c3c2)c1` [Compound 64], `Cc1cc(C)cc(N(CCC(=O)O)Cc2ccc3nc(NCCCN4CCOCC4)n(Cc4nc(C)ccc4O)c3c2)c1` [Compound 69] is lower in Activity: 9.3 for the first, 8.7 for the second.

Going from `Cc1cc(C)cc(N(Cc2ccc3nc(NCCCN4CCOCC4)n(Cc4nc(C)ccc4O)c3c2)Cc2c[nH]cn2)c1` [Compound 81] to `COCCN(Cc1ccc2nc(NCCCN3CCOCC3)n(Cc3nc(C)ccc3O)c2c1)c1cc(C)cc(C)c1` [Compound 82], the Activity falls from 8.9 to 8.6.

`Cc1ccc(O)c(Cn2c(NCCCN3CCOCC3)nc3ccc(CN(CCO)c4cccc(Br)c4)cc32)n1` [Compound 85] and `Cc1cccc(N(CCO)Cc2ccc3nc(NCCCN4CCOCC4)n(Cc4nc(C)ccc4O)c3c2)c1` [Compound 86] are the same in Activity: 9.3 for the first, 9.3 for the second.

Going from `Cc1ccc(O)c(Cn2c(NCCCN3CCOCC3)nc3ccc(CN(CCO)c4ccc(C#N)cc4)cc32)n1` [Compound 88] to `Cc1cccc(N(CCCCO)Cc2ccc3nc(NCCCN4CCOCC4)n(Cc4nc(C)ccc4O)c3c2)c1` [Compound 92], the Activity falls from 9.1 to 8.8.

Compared with `Cc1cccc(N(CCCO)Cc2ccc3nc(NCCCN4CCOCC4)n(Cc4nc(C)ccc4O)c3c2)c1` [Compound 93], `Cc1ccc(O)c(Cn2c(NCCCN3CCOCC3)nc3ccc(CN(CCCO)c4cccc(Br)c4)cc32)n1` [Compound 95] is lower in Activity: 8.7 for the first, 8.6 for the second.

For `C=Cc1ccc(CCO)c(NCc2ccc3nc(NCCCN4CCOCC4)n(Cc4nc(C)ccc4O)c3c2)c1` [Compound 6], the Activity was over 9.6.

Same assay, conditions: human respiratory syncytial virus, 168 h; RSV-infected HeLa cells, MTT readout seven days after infection; −log of EC50 in molar units

Compound `Cc1ccc(O)c(Cn2c(NCCCN3CCOCC3)nc3ccc(CNc4cc(S(C)(=O)=O)ccc4CCO)cc32)n1` [Compound 48] has an EC50 of 20 nM.

Same assay, conditions: pEC50 (−log of EC50 when expressed in molar units), protection against RSV cytopathology

With “4-{(3,5-Dimethyl-phenyl)-[3-(3-hydroxy-pyridin-2-ylmethyl)-2-(3-morpholin-4-yl-propylamino)-3H-benzoimidazol-5-ylmethyl]-amino}-butyramide [Compound 228]” the Activity was 8.4.
